Data as given in EP4603105A1, “PHARMACEUTICAL COMPOSITION CONTAINING CYCLIC COMPOUND HAVING SELECTIVE KRAS INHIBITORY EFFECT AGAINST HRAS AND NRAS” (CHUGAI SEIYAKU KABUSHIKI KAISHA, priority 2022, dated 2024).
pIC50: −log10 of the molar value.

How the values were obtained:
[1] = tested on: human lung cancer strain NCI-H441; type: cell-based
Procedure, shortened: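 Proliferation was scored by […] measured after the reagent was added to cultures kept at 37°C in 5% carbon dioxide.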

[2] = target: GDP-bound NRAS wild-type protein (Homo sapiens, UniProt P01111); assay: Binding to NRAS by surface plasmon resonance (SPR), KD and KD ratio to KRAS
Sequence of GDP-bound NRAS wild-type protein (P01111 whole entry): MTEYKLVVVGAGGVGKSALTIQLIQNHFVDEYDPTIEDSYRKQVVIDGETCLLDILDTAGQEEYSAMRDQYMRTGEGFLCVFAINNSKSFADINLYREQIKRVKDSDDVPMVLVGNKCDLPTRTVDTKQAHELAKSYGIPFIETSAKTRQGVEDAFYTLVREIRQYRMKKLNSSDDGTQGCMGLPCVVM
Procedure, shortened: (§1)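 SPR, 30°C: Avi-biotin RAS·GDP captured via Biotin CAPture (~100–300 RU); running buffer HBS pH 7.4, 1 mM DTT, 10 mM MgCl2, 0.01% Tween 20, 10 µM GDP, 4% DMSO. Single-cycle kinetics, 100 µL/min, 75 s injections; 1:1 model → KD.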

HRAS wild-type protein = HRAS wild-type protein (Homo sapiens, UniProt P01112); assay: Binding to HRAS by surface plasmon resonance (SPR), KD and KD ratio to KRAS
Sequence of HRAS wild-type protein (P01112 whole entry): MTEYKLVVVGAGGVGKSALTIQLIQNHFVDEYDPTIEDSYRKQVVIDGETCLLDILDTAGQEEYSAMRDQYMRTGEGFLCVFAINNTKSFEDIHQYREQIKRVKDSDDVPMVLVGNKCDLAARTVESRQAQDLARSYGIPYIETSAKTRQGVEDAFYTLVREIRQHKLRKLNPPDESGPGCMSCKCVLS
Procedure, shortened: as §1

[3] = ratio of KD value for GDP-bound NRAS wild-type protein to KD value for KRAS (SPR)
[4] = ratio of KD value for HRAS wild-type protein to KD value for KRAS (SPR)
[5] = ratio of the KD value with respect to GDP-bound NRAS wild-type protein to the KD value with respect to KRAS
[6] = ratio of the KD value with respect to HRAS wild-type protein to the KD value with respect to KRAS
[7] = ratio of KD for GDP-bound NRAS wild-type protein to KD for KRAS
[8] = ratio of KD for HRAS wild-type protein to KD for KRAS

SMILES	pIC50 [1]	NRAS /KRAS [2, 3]	HRAS /KRAS (HRAS wild-type protein; [4])	NRAS /KRAS [2, 5]	HRAS /KRAS (HRAS wild-type protein; [6])	NRAS /KRAS [2, 7]	HRAS /KRAS (HRAS wild-type protein; [8])
CC[C@H](C)[C@@H]1NC(=O)[C@H](CC(F)F)N(C)C(=O)C[C@@H](C(=O)N(C)CC)N(C)C(=O)[C@H](C2CCCC2)N(C)C(=O)C2(CC(C)(C)C2)NC(=O)[C@@H]2C[C@@H](C)CN2C(=O)[C@H](CCc2ccc(C(F)(F)F)c(Cl)c2)NC(=O)CN(C)C(=O)[C@H](Cc2ccc(C)cc2)N2CC/C=C\C[C@@H](C2=O)N(C)C(=O)CN(C)C1=O [PP1837]	7.81	A (a compound having 10 or more and less than 20 is denoted as A)	A (a compound having 10 or more and less than 20 is denoted as A)				
CCO[C@@H]1C[C@H]2C(=O)NC3(CC(C)(C)C3)C(=O)N(C)[C@@H](C3CCCC3)C(=O)N(C)[C@H](C(=O)N(C)C)CC(=O)N(C)[C@@H](CC(C)C)C(=O)N[C@@H]([C@@H](C)CC)C(=O)N(C)CC(=O)N(C)[C@H]3C/C=C\CCN(C3=O)[C@@H](Cc3ccc(C(F)(F)F)cc3)C(=O)N(C)CC(=O)N[C@@H](CCc3cc(F)c(C(F)(F)F)c(F)c3)C(=O)N2C1 [PP1650]	8.92	A (a compound having 10 or more and less than 20 is denoted as A)	A (a compound having 10 or more and less than 20 is denoted as A)				
CC[C@H](C)[C@@H]1NC(=O)[C@H](CC(C)C)N(CC)C(=O)C[C@@H](C(=O)N2CCOCC2)N(C)C(=O)[C@H](C2CCCC2)N(C)C(=O)C2(CCCC2)NC(=O)[C@@H]2CCCN2C(=O)[C@H](CCc2cc(F)c(C(F)(F)F)c(F)c2)NC(=O)CN(C)C(=O)[C@H](Cc2ccc(C(F)(F)F)cc2)N2CCCC[C@@H](C2=O)N(C)C(=O)CN(C)C1=O [PP0588]	7.78			B (a compound having 3 or more and less than 10 is denoted as B)	B (a compound having 3 or more and less than 10 is denoted as B)		
CC[C@H](C)[C@@H]1NC(=O)[C@H](CC(C)C)N(C)C(=O)C[C@@H](C(=O)N2CCOCC2)N(C)C(=O)[C@H](C2CCCC2)N(C)C(=O)C2(COC2)NC(=O)[C@@H]2CCCN2C(=O)[C@H](CCc2cc(F)c(C(F)(F)F)c(F)c2)NC(=O)CN(C)C(=O)[C@H](Cc2ccc(C(F)(F)F)cc2)N2CCCC[C@@H](C2=O)N(C)C(=O)CN(C)C1=O [PP0563]	7.54			B (a compound having 3 or more and less than 10 is denoted as B)	B (a compound having 3 or more and less than 10 is denoted as B)		
CCO[C@@H]1C[C@H]2C(=O)NC3(CCC3)C(=O)N(C)[C@@H](C3CCCC3)C(=O)N(C)[C@H](C(=O)N(C)C)CC(=O)N(C)[C@@H](CC3CCC3)C(=O)N[C@@H]([C@@H](C)CC)C(=O)N(C)CC(=O)N(C)[C@H]3CCCCCN(C3=O)[C@@H](Cc3ccc(C(F)(F)F)cc3)C(=O)N(C)CC(=O)N[C@@H](CCc3cc(F)c(C(F)(F)F)c(F)c3)C(=O)N2C1 [PP0668]	7.64			B (a compound having 3 or more and less than 10 is denoted as B)	B (a compound having 3 or more and less than 10 is denoted as B)		
CCO[C@@H]1C[C@H]2C(=O)NC3(CC(C)(C)C3)C(=O)N(C)[C@@H](C3CCCC3)C(=O)N(C)[C@H](C(=O)N(C)C)CC(=O)N(C)[C@@H](CC3CCC3)C(=O)N[C@@H]([C@@H](C)CC)C(=O)N(C)CC(=O)N(C)[C@H]3C/C=C\CCN(C3=O)[C@@H](Cc3ccc(C(F)(F)F)cc3)C(=O)N(C)CC(=O)N[C@@H](CCc3ccc(C(F)(F)F)c(Cl)c3)C(=O)N2C1 [PP1752]	8.24	A (a compound having 10 or more and less than 20 is denoted as A)	A (a compound having 10 or more and less than 20 is denoted as A)				
CC[C@H](C)[C@@H]1NC(=O)[C@H](CC2CC2)N(C)C(=O)C[C@@H](C(=O)N(C)C)N(C)C(=O)[C@H](C2CCCC2)N(C)C(=O)C2(CC(C)(C)C2)NC(=O)[C@@H]2C[C@@H](F)CN2C(=O)[C@H](CCc2cc(F)c(C(F)(F)F)c(F)c2)NC(=O)CN(C)C(=O)[C@H](Cc2ccc(C)cc2)N2CC/C=C\C[C@@H](C2=O)N(C)C(=O)CN(C)C1=O [PP2804]	8.66					A (a compound having 10 or more and less than 20 is denoted as A)	A (a compound having 10 or more and less than 20 is denoted as A)
CCO[C@@H]1C[C@H]2C(=O)NC3(CCC3)C(=O)N(C)[C@@H](C3CCCC3)C(=O)N(C)[C@H](C(=O)N3CCOCC3)CC(=O)N(C)[C@@H](Cc3ccc(C)cc3)C(=O)N[C@@H]([C@@H](C)CC)C(=O)N(C)CC(=O)N(C)[C@H]3CCCCCN(C3=O)[C@@H](Cc3ccc(C(F)(F)F)cc3)C(=O)N(C)CC(=O)N[C@@H](CCc3cc(F)c(C(F)(F)F)c(F)c3)C(=O)N2C1 [PP0933]	6.82					A (a compound having 10 or more and less than 20 is denoted as A)	B (a compound having 3 or more and less than 10 is denoted as B)
CCCN(C)C(=O)[C@@H]1CC(=O)N(C)[C@@H](CC2CCC2)C(=O)N[C@@H]([C@@H](C)CC)C(=O)N(C)CC(=O)N(C)[C@H]2C/C=C\CCN(C2=O)[C@@H](Cc2ccc(C(F)(F)F)cc2)C(=O)N(C)CC(=O)N[C@@H](CCc2cc(F)c(C(F)(F)F)c(F)c2)C(=O)N2C[C@H](OCC)C[C@H]2C(=O)NC2(CCC2)C(=O)N(C)[C@@H](C2CCCC2)C(=O)N1C [PP1705]	8.10	AA (a compound having 20 or more is denoted as AA)	A (a compound having 10 or more and less than 20 is denoted as A)				
CCO[C@@H]1C[C@H]2C(=O)NC3(CC=CC3)C(=O)N(C)[C@@H](C3CCCC3)C(=O)N(C)[C@H](C(=O)N3CCOCC3)CC(=O)N(C)[C@@H](CC(C)C)C(=O)N[C@@H]([C@@H](C)CC)C(=O)N(C)CC(=O)N(C)[C@H]3CCCCCN(C3=O)[C@@H](Cc3ccc(C(F)(F)F)cc3)C(=O)N(C)CC(=O)N[C@@H](CCc3cc(F)c(C(F)(F)F)c(F)c3)C(=O)N2C1 [PP0727]	7.07			B (a compound having 3 or more and less than 10 is denoted as B)	B (a compound having 3 or more and less than 10 is denoted as B)		
CCCN(C)C(=O)[C@@H]1CC(=O)N(C)[C@@H](COC)C(=O)N[C@@H]([C@@H](C)CC)C(=O)N(C)CC(=O)N(C)[C@H]2C/C=C\CCN(C2=O)[C@@H](Cc2ccc(C(F)(F)F)cc2)C(=O)N(C)CC(=O)N[C@@H](CCc2cc(F)c(C(F)(F)F)c(F)c2)C(=O)N2C[C@H](OCC)C[C@H]2C(=O)NC2(CC(C)(C)C2)C(=O)N(C)[C@@H](C2CCCC2)C(=O)N1C [PP1672]	8.22	A (a compound having 10 or more and less than 20 is denoted as A)	A (a compound having 10 or more and less than 20 is denoted as A)				
CCO[C@@H]1C[C@H]2C(=O)NC3(CCC3)C(=O)N(C)[C@@H](C3CCCC3)C(=O)N(C)[C@H](C(=O)N3CCOCC3)CC(=O)N(C)[C@@H](CC3CC3)C(=O)N[C@@H]([C@@H](C)CC)C(=O)N(C)CC(=O)N(C)[C@H]3CCCCN(C3=O)[C@@H](Cc3ccc(C(F)(F)F)cc3)C(=O)N(C)CC(=O)N[C@@H](CCc3cc(F)c(C(F)(F)F)c(F)c3)C(=O)N2C1 [PP0712]	8.15			C (A compound having a KD ratio of 0.1 or more and less than 3 is denoted as C)	C (A compound having a KD ratio of 0.1 or more and less than 3 is denoted as C)		
CCO[C@@H]1C[C@H]2C(=O)NC3(CC(C)(C)C3)C(=O)N(C)[C@@H](C3CCCC3)C(=O)N(C)[C@H](C(=O)N(C)C)CC(=O)N(C)[C@H]3CCCCCc4ccc(cc4)C[C@@H](C(=O)N(C)CC(=O)N[C@@H](CCc4ccc(C(F)(F)F)c(OC)c4)C(=O)N2C1)N1CC/C=C\C[C@@H](C1=O)N(C)C(=O)CN(C1CC1)C(=O)[C@H]([C@@H](C)CC)NC3=O [PP3075]	8.96					A (a compound having 10 or more and less than 20 is denoted as A)	A (a compound having 10 or more and less than 20 is denoted as A)
CCO[C@@H]1C[C@H]2C(=O)NC3(CCC3)C(=O)N(C)[C@@H](C3CCCC3)C(=O)N(C)[C@H](C(=O)N3CCOCC3)CC(=O)N(C)[C@@H](C)C(=O)N[C@@H]([C@@H](C)CC)C(=O)N(C)CC(=O)N(C)[C@H]3CCCCCN(C3=O)[C@@H](Cc3ccc(C(F)(F)F)cc3)C(=O)N(C)CC(=O)N[C@@H](CCc3cc(F)c(C(F)(F)F)c(F)c3)C(=O)N2C1 [PP0474]	7.70			B (a compound having 3 or more and less than 10 is denoted as B)	B (a compound having 3 or more and less than 10 is denoted as B)		
CCC[C@H]1C(=O)N[C@@H]([C@@H](C)CC)C(=O)N2CCC[C@H]2C(=O)N(C)[C@H]2C/C=C\CCN(C2=O)[C@@H](Cc2ccc(C)cc2)C(=O)N(C)CC(=O)N[C@@H](CCc2ccc(C(F)(F)F)c(OC)c2)C(=O)N2C[C@H](OCC)C[C@H]2C(=O)N(C)C2(CCC2)C(=O)N(C)[C@@H](C2CCCC2)C(=O)N(C)[C@H](C(=O)N2CCCC2)CC(=O)N1C [PP3102]	8.17					A (a compound having 10 or more and less than 20 is denoted as A)	A (a compound having 10 or more and less than 20 is denoted as A)
